In patent publication US12077503B2, “Substituted cyclic amides and their use as herbicides” (FMC CORPORATION, priority 2015, dated 2024):

How the values were obtained:
Type in all cases: in vivo
[1] = tested on: pigweed (Amaranthus retroflexus); assay: Test A postemergence
How it was run: (§1)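 Seeds sprayed preemergence with a directed soil spray, or plants at 2 to 10 cm height and one- to two-leaf stage sprayed postemergence, with test chemicals in a non-phytotoxic solvent mixture containing surfactant, in loam soil–sand blend. Injury rated visually against untreated controls after about 10 d in greenhouse, 0 (no effect) to 100 (complete control).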

[2] = tested on: barnyardgrass (Echinochloa crus-galli); assay: Test A postemergence
How it was run: as §1

[3] = tested on: blackgrass (Alopecurus myosuroides); assay: Test A postemergence
How it was run: as §1

[4] = tested on: giant foxtail (Setaria faberii); assay: Test A postemergence
How it was run: as §1

[5] = tested on: Galium (catchweed bedstraw, Galium aparine); assay: Test A postemergence
How it was run: as §1

[6] = tested on: ryegrass, Italian (Italian ryegrass, Lolium multiflorum); assay: Test A postemergence
How it was run: as §1

[7] = tested on: ragweed (common ragweed, Ambrosia elatior); assay: Test A postemergence
How it was run: as §1

[8] = tested on: wheat (Triticum aestivum); assay: Test A postemergence
How it was run: as §1

[9] = tested on: Kochia (Kochia scoparia); assay: Test A postemergence
How it was run: as §1

[10] = tested on: corn (Zea mays); assay: Test A postemergence
How it was run: as §1

[11] = tested on: barnyardgrass (Echinochloa crus-galli); assay: Test C flooded paddy test; settings: Flood, 0 is no effect, 100 is complete control
From the text: (§2) Plant species in the flooded paddy test consisted of rice (Oryza sativa), sedge, umbrella (small-flower umbrella sedge, Cyperus difformis), ducksalad (Heteranthera limosa), and barnyardgrass (Echinochloa crus-galli) grown to the 2-leaf stage for testing. At time of treatment, test pots were flooded to 3 cm above the soil surface, treated by application of test compounds directly to the paddy water, and then maintained at that water depth for the duration of the test. Treated plants and controls were maintained in a greenhouse for 13 to 15 d, after which time all species were compared to controls and visually evaluated. Plant response ratings, summarized in Table C, are based on a scale of 0 to 100 where 0 is no effect and 100 is complete control. A dash (-) response means no test result.

[12] = tested on: ducksalad (Heteranthera limosa); assay: Test C flooded paddy test; settings: Flood, 0 is no effect, 100 is complete control
From the text: as §2

[13] = tested on: sedge, umbrella (small-flower umbrella sedge, Cyperus difformis); assay: Test C flooded paddy test; settings: Flood, 0 is no effect, 100 is complete control
From the text: as §2

[14] = tested on: rice (Oryza sativa); assay: Test C flooded paddy test; settings: Flood, 0 is no effect, 100 is complete control
From the text: as §2

[15] = tested on: barnyardgrass (Echinochloa crus-galli); assay: Test B flooded paddy test; settings: Flood, 250 g ai/ha; 0 to 100 scale where 0 is no effect and 100 is complete control; 13 to 15 d
How it was run: (§3)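 Plants at 2-leaf stage flooded to 3 cm above soil, with compounds applied directly to paddy water and that depth maintained. Plants kept in greenhouse 13–15 d. Visual rating versus controls on a 0 (no effect) to 100 (complete control) scale.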

[16] = tested on: rice (Oryra sativa); assay: Test B flooded paddy test; settings: Flood, 250 g ai/ha; 0 to 100 scale where 0 is no effect and 100 is complete control; 13 to 15 d
How it was run: as §3

[17] = tested on: ducksalad (Heteranthera limosa); assay: Test B flooded paddy test; settings: Flood, 250 g ai/ha; 0 to 100 scale where 0 is no effect and 100 is complete control; 13 to 15 d
How it was run: as §3

[18] = tested on: sedge, umbrella (small-flower umbrella sedge, Cyperus difformis); assay: Test B flooded paddy test; settings: Flood, 250 g ai/ha; 0 to 100 scale where 0 is no effect and 100 is complete control; 13 to 15 d
How it was run: as §3

[19] = tested on: pigweed (Amaranthus retroflexus); assay: Test A preemergence; settings: Preemergence
[20] = tested on: barnyardgrass (Echinochloa crus-galli); assay: Test A preemergence; settings: Preemergence
How it was run: as §1

[21] = tested on: giant foxtail (Setaria faberii); assay: Test A preemergence; settings: Preemergence
How it was run: as §1

[22] = tested on: ryegrass, Italian (Italian ryegrass, Lolium multiflorum); assay: Test A preemergence; settings: Preemergence
How it was run: as §1

[23] = tested on: ragweed (common ragweed, Ambrosia elatior); assay: Test A preemergence; settings: 125 g ai/ha, Preemergence; visual injury after approximately 10 d; 0 to 100 scale where 0 is no effect and 100 is complete control
How it was run: as §1

[24] = tested on: Kochia (Kochia scoparia); assay: Test A preemergence; settings: Preemergence
How it was run: as §1

[25] = 125 g ai/ha, postemergence, visual rating after approx. 10 d, 0 to 100 scale (0 no effect, 100 complete control)
[26] = Postemergence, 500 g ai/ha, 0 to 100 scale where 0 is no effect and 100 is complete control
[27] = 125 g ai/ha, visual injury after approximately 10 d, 0 to 100 scale where 0 is no effect and 100 is complete control
[28] = 500 g ai/ha, visual injury approx. 10 d

SMILES: CN1CC(c2ccc(F)c(C(F)(F)F)c2)C(C(=O)Nc2ccccc2F)C1=O (stereo not drawn) [Compound 611]
- Plant response rating, Pigweed [1, 25]: 20
- Plant response rating, Pigweed [1, 26]: 30
- Plant response rating, Barnyardgrass [2, 25]: 90
- Plant response rating, Barnyardgrass [2, 26]: 90
- Plant response rating, Blackgrass [3, 25]: 50
- Plant response rating, Blackgrass [3, 26]: 70
- Plant response rating, Foxtail, Giant [4, 25]: 90
- Plant response rating, Foxtail, Giant [4, 26]: 90
- Plant response rating, Galium [5, 25]: 50
- Plant response rating, Galium [5, 26]: 60
- Plant response rating, Ryegrass, Italian [6, 25]: 40
- Plant response rating, Ryegrass, Italian [6, 26]: 70
- Plant response rating, Ragweed [7, 25]: 0
- Plant response rating, Ragweed [7, 26]: 30
- Plant response rating, Wheat [8, 25]: 40
- Plant response rating, Wheat [8, 26]: 60
- Plant response rating, Kochia [9, 25]: 60
- Plant response rating, Kochia [9, 26]: 70
- Plant response rating, Corn [10, 25]: 50
- Plant response rating, Corn [10, 26]: 70
- Plant response rating (scale of 0 to 100), Barnyardgrass ([11]; 31 g ai/ha): 0
- Plant response rating (scale of 0 to 100), Barnyardgrass ([11]; 62 g ai/ha): 0
- Plant response rating (scale of 0 to 100), Barnyardgrass ([11]; 125 g ai/ha): 60
- Plant response rating (scale of 0 to 100), Barnyardgrass ([11]; 250 g ai/ha): 75
- Plant response rating (scale of 0 to 100), Ducksalad ([12]; 31 g ai/ha): 0
- Plant response rating (scale of 0 to 100), Ducksalad ([12]; 62 g ai/ha): 0
- Plant response rating (scale of 0 to 100), Ducksalad ([12]; 125 g ai/ha): 80
- Plant response rating (scale of 0 to 100), Ducksalad ([12]; 250 g ai/ha): 95
- Plant response rating (scale of 0 to 100), Sedge, Umbrella ([13]; 31 g ai/ha): 0
- Plant response rating (scale of 0 to 100), Sedge, Umbrella ([13]; 62 g ai/ha): 0
- Plant response rating (scale of 0 to 100), Sedge, Umbrella ([13]; 125 g ai/ha): 0
- Plant response rating (scale of 0 to 100), Sedge, Umbrella ([13]; 250 g ai/ha): 0
- Plant response rating (scale of 0 to 100), Rice ([14]; 31 g ai/ha): 0
- Plant response rating (scale of 0 to 100), Rice ([14]; 62 g ai/ha): 0
- Plant response rating (scale of 0 to 100), Rice ([14]; 125 g ai/ha): 0
- Plant response rating (scale of 0 to 100), Rice ([14]; 250 g ai/ha): 15
- Plant response rating, Barnyardgrass [15]: 85
- Plant response rating, Rice [16]: 40
- Plant response rating, Ducksalad [17]: 100
- Plant response rating, Sedge, Umbrella [18]: 0
- Plant response rating, Pigweed [19, 27]: 70
- Pigweed plant response rating (0 to 100 scale, 0 is no effect, 100 is complete control) [19, 28]: 80
- Plant response rating, Barnyardgrass [20, 27]: 90
- Barnyardgrass plant response rating (0 to 100 scale, 0 is no effect, 100 is complete control) [20, 28]: 90
- Plant response rating, Foxtail, Giant [21, 27]: 90
- Foxtail, Giant plant response rating (0 to 100 scale, 0 is no effect, 100 is complete control) [21, 28]: 90
- Plant response rating, Ryegrass, Italian [22, 27]: 60
- Ryegrass, Italian plant response rating (0 to 100 scale, 0 is no effect, 100 is complete control) [22, 28]: 60
- Plant response rating, Ragweed [23]: 0
- Plant response rating, Kochia [24, 27]: 40
- Kochia plant response rating (0 to 100 scale, 0 is no effect, 100 is complete control) [24, 28]: 60
